{
  "source": "patent US10870654B2",
  "about": "“Pharmaceutically acceptable salts and polymorphic forms of hydrocodone benzoic acid enol ester and processes for making same” (KemPharm, Inc., priority 2013, dated 2020)",
  "key": {"[1]": {"conditions": "RH>90% at room temperature; hydrochloride"}, "[2]": {"procedure": "A number of experiments were performed to map out the relative stability of Forms I to V. Prior to the relative stability tests, the solids of Forms I, II and III were dried in the oven to remove surface water."}, "[3]": {"conditions": "37° C.; for water solubility: hydrochloride", "from_the_text": "Hydrocodone benzoic acid enol ester HCl exists in at least 6 distinct solid forms, designated herein as Forms I-V and amorphous. FIG. 1 is a scheme that depicts the general processes for converting hydrocodone benzoic acid enol ester HCl between its polymorphic forms I-V. Each polymorph has different characteristics, including solubility and stability."}},
  "note": "Like-named read-outs stand apart in the source and are kept apart here.",
  "data": [
    {"smiles": "COc1ccc2c3c1O[C@H]1C(OC(=O)c4ccccc4)=CC[C@@H]4[C@@H](C2)N(C)CC[C@@]341.Cl", "note": "[Form I, hydrocodone benzoic acid enol ester hydrochloride]", "values": [
      {"measurement": "stability under high humidity", "setting": "[1]", "value": "stable for at least two weeks"},
      {"measurement": "relative stability of forms in slurry", "setting": "[2]; in water or organic solvents that contain water", "value": "always the most stable"},
      {"measurement": "water solubility", "setting": "[3]", "value": "about 24 mg/mL"}
    ]},
    {"smiles": "COc1ccc2c3c1O[C@H]1C(OC(=O)c4ccccc4)=CC[C@@H]4[C@@H](C2)N(C)CC[C@@]341.Cl", "note": "[Form II, hydrocodone benzoic acid enol ester hydrochloride]", "values": [
      {"measurement": "stability under high humidity", "setting": "[1]", "value": "hygroscopic and unstable, and converted to Form IV"},
      {"measurement": "relative stability of forms in slurry", "setting": "[2]; in anhydrous organic solvents, especially at higher temperatures", "value": "the more stable one"},
      {"measurement": "water solubility", "setting": "[3]", "value": "> 200", "unit": "mg/mL"},
      {"measurement": "water solubility relative to Form I", "setting": "[3]; times higher than the solubility of Form I", "value": 9, "unit": "times"}
    ]},
    {"smiles": "COc1ccc2c3c1O[C@H]1C(OC(=O)c4ccccc4)=CC[C@@H]4[C@@H](C2)N(C)CC[C@@]341.Cl", "note": "[Form III, hydrocodone benzoic acid enol ester hydrochloride]", "values": [
      {"measurement": "stability under high humidity", "setting": "[1]", "value": "hygroscopic and unstable, and converted to Form V"}
    ]},
    {"smiles": "COc1ccc2c3c1O[C@H]1C(OC(=O)c4ccccc4)=CC[C@@H]4[C@@H](C2)N(C)CC[C@@]341.Cl", "note": "[I + II + III, hydrocodone benzoic acid enol ester hydrochloride]", "values": [
      {"measurement": "Form after 1 day slurry", "setting": "[2]; solvent Acetonitrile, 25° C.", "value": "I + traces of II"},
      {"measurement": "Form after 1 day slurry", "setting": "[2]; solvent IPA, 25° C.", "value": "I + II"},
      {"measurement": "Form after 1 day slurry", "setting": "[2]; solvent IPA, 50° C.", "value": "I + II"}
    ]}
  ]
}
